Starred links: 1 amine or outer side, 2 acyl side, 3 side chain; linkers in the order of their positions; H or OH if unused. Residues, ends and D or L forms follow the SMILES beside them. Groups on a side chain read outwards from the residue. *: point of attachment. Morpholide = C1CN(*)CCO1; Cbz = O=C(OCc1ccccc1)*; CO = O=C([*:1])[*:2]
Biological target: T1, integrin VLA-4, expressed on the Jurkat J6 (human lymphoblast cell line) cell membrane with VCAM-1 (Homo sapiens, UniProt P05556+P13612)
T1 construct: integrin VLA-4, expressed on the Jurkat J6 (human lymphoblast cell line) cell membrane; endogenous in cells; host or cells: Jurkat J6 cells (integrin). zzVCAM-1 was made in house in Drosophila melanogaster S2 cells
T1 sequence (P13612 34-1032): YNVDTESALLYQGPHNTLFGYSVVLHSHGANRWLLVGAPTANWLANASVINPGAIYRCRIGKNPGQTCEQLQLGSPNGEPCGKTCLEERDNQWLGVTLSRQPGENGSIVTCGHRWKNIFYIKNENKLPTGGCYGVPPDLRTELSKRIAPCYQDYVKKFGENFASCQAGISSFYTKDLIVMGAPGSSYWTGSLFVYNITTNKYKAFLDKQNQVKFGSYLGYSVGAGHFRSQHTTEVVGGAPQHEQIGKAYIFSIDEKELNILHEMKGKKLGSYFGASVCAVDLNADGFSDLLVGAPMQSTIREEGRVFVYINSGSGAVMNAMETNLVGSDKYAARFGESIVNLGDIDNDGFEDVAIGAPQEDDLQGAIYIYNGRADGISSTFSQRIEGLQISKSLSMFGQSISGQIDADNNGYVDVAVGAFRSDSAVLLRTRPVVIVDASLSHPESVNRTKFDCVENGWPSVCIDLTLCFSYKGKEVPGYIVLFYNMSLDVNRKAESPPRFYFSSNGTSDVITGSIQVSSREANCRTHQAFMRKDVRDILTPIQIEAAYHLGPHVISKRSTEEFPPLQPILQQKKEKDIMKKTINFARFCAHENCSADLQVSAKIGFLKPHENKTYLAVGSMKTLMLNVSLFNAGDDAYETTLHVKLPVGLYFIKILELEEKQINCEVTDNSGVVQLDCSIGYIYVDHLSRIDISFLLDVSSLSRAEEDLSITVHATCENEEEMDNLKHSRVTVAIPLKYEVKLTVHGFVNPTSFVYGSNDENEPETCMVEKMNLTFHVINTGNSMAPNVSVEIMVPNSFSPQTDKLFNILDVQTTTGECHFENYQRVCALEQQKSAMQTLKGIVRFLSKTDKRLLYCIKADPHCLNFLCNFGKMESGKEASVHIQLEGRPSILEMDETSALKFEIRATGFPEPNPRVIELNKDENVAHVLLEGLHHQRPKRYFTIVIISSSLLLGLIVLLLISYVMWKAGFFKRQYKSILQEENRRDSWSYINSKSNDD
T1 sequence (P05556 21-798): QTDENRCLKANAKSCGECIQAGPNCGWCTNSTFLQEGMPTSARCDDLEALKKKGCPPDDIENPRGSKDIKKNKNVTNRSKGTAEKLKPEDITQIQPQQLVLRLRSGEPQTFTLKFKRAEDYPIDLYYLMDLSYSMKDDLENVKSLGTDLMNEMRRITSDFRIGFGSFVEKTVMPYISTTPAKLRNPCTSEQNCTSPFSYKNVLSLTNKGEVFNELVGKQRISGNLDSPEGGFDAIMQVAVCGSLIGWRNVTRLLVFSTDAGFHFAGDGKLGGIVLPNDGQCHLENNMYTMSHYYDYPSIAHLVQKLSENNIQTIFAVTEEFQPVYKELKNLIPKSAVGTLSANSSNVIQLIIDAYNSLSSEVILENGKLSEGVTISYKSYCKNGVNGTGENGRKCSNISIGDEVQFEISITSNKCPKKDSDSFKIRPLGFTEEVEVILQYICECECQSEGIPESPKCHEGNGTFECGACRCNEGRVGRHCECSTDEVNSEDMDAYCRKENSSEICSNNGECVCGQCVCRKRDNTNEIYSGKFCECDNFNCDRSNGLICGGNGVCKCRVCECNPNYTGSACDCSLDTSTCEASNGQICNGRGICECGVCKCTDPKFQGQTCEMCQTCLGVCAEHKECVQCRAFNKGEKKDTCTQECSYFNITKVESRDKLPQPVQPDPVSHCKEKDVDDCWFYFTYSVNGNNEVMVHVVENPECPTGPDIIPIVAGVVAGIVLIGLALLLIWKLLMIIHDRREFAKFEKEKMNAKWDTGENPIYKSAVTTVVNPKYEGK
Experiment: Jurkat J6/VCAM-1 adhesion assay
Format: cell-based
Conditions: Jurkat J6 cell adhesion to VCAM-1, 1 mM MnCl2; mean of n experiments
Description: (1) Jurkat J6/VCAM-1 Adhesion Assay
This assay was used to investigate the interaction of the integrin VLA-4, expressed on the Jurkat J6 (human lymphoblast cell line) cell membrane with VCAM-1. Polystyrene 96-well microtitre plates were coated with human immunoglobulin G (IgG; Sigma Chemicals, UK, Product No. 14506) at a concentration of 0.05 mg ml^−1 in bicarbonate buffer (36 mM NaHCO3 and 22 mM Na2CO3, prepared in Dulbecco's phosphate buffered saline at pH 9.8 (PBS); Sigma Chemicals, UK, Product No. 14190-094) for 2 hours at 37° C. This solution was then aspirated and the plates were washed twice with PBS.
VCAM-1 was prepared by cloning its constituent seven domains into a Drosophila expression system with a zz (Protein A) tag. This zzVCAM-1 was then expressed from Drosophila melanogaster S2 cell culture, induced with copper. Protease inhibitors were added and the culture supernatant was clarified either by filtration through a 0.2 μm filter or by centrifugation. The zzVCAM-1 was then purified from this clarified medium using an IgG agarose column, equilibrated with either 20 mM sodium phosphate pH 7.2 alone or in the presence of 0.5M sodium chloride. Elution of zzVCAM-1 from the column was mediated using 3M ammonium thiocyanate, which was subsequently removed using a G25 desalting column, equilibrated with 20 mM sodium phosphate, pH 7.2. The purified zzVCAM-1 was then concentrated to a small volume (Amicon stirred cell concentrators) until a concentration of 62.5 ng ml^−1 was obtained, calculated using the extinction coefficient value.
This solution of zzVCAM-1 was then incubated overnight at 4° C. in the IgG coated microtitre plates with 3% bovine serum albumin (BSA) in PBS, followed by aspiration and two further washes with PBS. A concentration of the Jurkat J6 cells (6×10^6 cels ml^−1), grown in cell media RPMI 1640 (HyClone Ltd, Product No. B-9106-L) supplemented with 10% heat inactivated fetal calf serum (FCS; Gibco BRL, Product No. 10099-075) and 2 mM L-glutamine, were labelled with 10 μM of the fluorescent dye, 2′, 7′-bis(2-carboxyethyl)-5-(e6)-carboxyfluorescein acetoxymethyl ester (BCECF-AM; Molecular Probes Inc, Product No. B-1150) at 37° C. for 10 minutes. The excess dye was then removed by centrifugation at 500×g for 5 minutes and the cells were resuspended at a concentration of 1.2×10^7 cells ml^−1 in Hank's balanced salt solution (HBSS; Gibco BRL, Product No. 14190-094).
Equal volumes of compounds (dissolved in an appropriate solvent and diluted in HBSS containing 1 mM MnCl2) and the labelled Jurkat J6 cells, were added to the VCAM-1 coated plates and adhesion was allowed to proceed for 30 minutes at 37° C. Non, or loosely adhered cells, were removed by inversion of the plate and blotted with tissue paper. Two washes with PBS and further blotting were then performed, before the addition of 2% detergent (Triton-X®; Sigma Chemicals UK, Product No. X100). Counting was undertaken in a Wallac Viktor™ Fluorimeter, where low fluorescence values were indicative of compounds which had inhibited adhesion. All samples were assayed in singlicate and the following four parameter curve fit, shown by Equation (I) was applied: [formula]
Where a is the minimum, b is the Hill slope, c is the IC50 and d is the maximum. (Maximum and minimum values are those compared to adhesion in the absence of compound and in the presence of the dipotassium salt of 2 mM EDTA; Sigma Chemicals, UK, Product No. ED2P). Data is presented as the mean pIC50 with the standard error of the mean of n experiments.

SMILES	IC50 [nM]
CC(C)C[C@H](NC(=O)COc1ccc(Cl)cc1Cl)C(=O)N[C@@H](Cc1ccc(OC(=O)N2CCN(C(=O)c3ccccc3)CC2)cc1)C(=O)O [Example 22, (2S)-3-(4-{[(4-Benzoyl-1-piperazinyl)carbonyl]oxy}phenyl)-2-[((2S)-2-{[2-(2,4-dichlorophenoxy)acetyl]amino}-4-methylpentanoyl)amino]propanoic acid]	22.4
Cc1ccccc1OCC(=O)N[C@@H](CC(C)C)C(=O)N[C@@H](Cc1ccc(OC(=O)N2CCOCC2)cc1)C(=O)O [Example 25, (2S)-2-[((2S)-4-Methyl-2-{[2-(2-methylphenoxy)acetyl]amino}pentanoyl)amino]-3-{4-[(4-morpholinylcarbonyl)oxy]phenyl}propanoic acid]	3.16
CC(C)C[C@H](NC(=O)COc1ccc(Cl)cc1Cl)C(=O)N[C@@H](Cc1ccc(OC(=O)N2CCOCC2)cc1)C(=O)O [Example 35, (2S)-2-[((2S)-2-{[2-(2,4-Dichlorophenoxy)acetyl]amino}-4-methylpentanoyl)amino]-3-{4-[(4-morpholinylcarbonyl)oxy]phenyl}propanoic acid]	6.61
CC(C)C[C@H](NC(=O)COc1ccccc1C(=O)c1ccccc1)C(=O)N[C@@H](Cc1ccc(OC(=O)N2CCOCC2)cc1)C(=O)O [Example 36, (2S)-2-[((2S)-2-{[2-(2-Benzoylphenoxy)acetyl]amino}-4-methylpentanoyl)amino]-3-{4-[(4-morpholinylcarbonyl)oxy]phenyl}propanoic acid]	12.3
CCCc1ccccc1OCC(=O)N[C@@H](CC(C)C)C(=O)N[C@@H](Cc1ccc(OC(=O)N2CCOCC2)cc1)C(=O)O [Example 37, (2S)-2-[((2S)-4-Methyl-2-{[2-(2-propylphenoxy)acetyl]amino}pentanoyl)amino]-3-{4-[(4-morpholinylcarbonyl)oxy]phenyl}propanoic acid]	5.75
CC(C)C[C@H](NC(=O)COc1ccc2ccccc2c1Br)C(=O)N[C@@H](Cc1ccc(OC(=O)N2CCOCC2)cc1)C(=O)O [Example 38, (2S)-2-{[(2S)-2-({2-[(1-Bromo-2-naphthyl)oxy]acetyl}amino)-4-methylpentanoyl]amino}-3-{4-[(4-morpholinylcarbonyl)oxy]phenyl}propanoic acid]	15.5
CC(C)C[C@H](NC(=O)COc1ccccc1C1CCCCC1)C(=O)N[C@@H](Cc1ccc(OC(=O)N2CCOCC2)cc1)C(=O)O [Example 39, (2S)-2-[((2S)-2-{[2-(2-Cyclohexylphenoxy)acetyl]amino}-4-methylpentanoyl)amino]-3-{4-[(4-morpholinylcarbonyl)oxy]phenyl}propanoic acid]	22.4
CC(C)C[C@H](NC(=O)OCc1ccccc1)C(=O)N[C@@H](Cc1ccc(OC(=O)N2CCOCC2)cc1)C(=O)O [Example 40, (2S)-2-[((2S)-2-{[(Benzyloxy)carbonyl]amino}-4-methylpentanoyl)amino]-3-{4-[(4-morpholinylcarbonyl)oxy]phenyl}propanoic acid] (Cbz-Leu-Tyr([CO-Morpholide])-OH)	9.12
CC(C)C[C@H](NC(=O)COc1ccccc1I)C(=O)N[C@@H](Cc1ccc(OC(=O)N2CCN(C(=O)c3ccco3)CC2)cc1)C(=O)O [Example 41, (2S)-3-[4-({[4-(2-Furoyl)-1-piperazinyl]carbonyl}oxy)phenyl]-2-[((2S)-2-{[2-(2-iodophenoxy)acetyl]amino}-4-methylpentanoyl)amino]propanoic acid]	9.33
CC(C)C[C@H](NC(=O)COc1ccccc1C1CCCCC1)C(=O)N[C@@H](Cc1ccc(OC(=O)N2CCN(C(=O)c3ccco3)CC2)cc1)C(=O)O [Example 43, (2S)-2-[((2S)-2-{[2-(2-Cycohexylphenoxy)acetyl]amino}-4-methylpentanoyl)amino]-3-[4-({[4-(2-furoyl)-1-piperazinyl]carbonyl}oxy)phenyl]propanoic acid]	22.4

Continued, values first:

IC50 [nM]	SMILES
2.95	CC(C)C[C@H](NC(=O)COc1ccccc1I)C(=O)N[C@@H](Cc1ccc(OC(=O)N2CCC(C(N)=O)CC2)cc1)C(=O)O [Example 26, (2S)-3-[4-({[4-(Aminocarbonyl)-1-piperidinyl]carbonyl}oxy)phenyl]-2-[((2S)-2-{[2-(2-iodophenoxy)acetyl]amino}-4-methylpentanoyl)amino]propanoic acid]
16.2	CC(C)C[C@H](NC(=O)COc1ccccc1C(C)(C)C)C(=O)N[C@@H](Cc1ccc(OC(=O)N2CCC(C(=O)N3CCCCC3)CC2)cc1)C(=O)O [Example 29, (2S)-2-{[(2S)-2-({2-[2-(Tert-butyl)phenoxy]acetyl}amino)-4-methylpentanoyl]amino}-3-[4-({[4-(1-piperidinylcarbonyl)-1-piperidinyl]carbonyl}oxy)phenyl]propanoic acid]
5.75	Cc1ccccc1OCC(=O)N[C@@H](CC(C)C)C(=O)N[C@@H](Cc1ccc(OC(=O)N2CCC(C(=O)N3CCCCC3)CC2)cc1)C(=O)O [Example 30, (2S)-2-[((2S)-4-Methyl-2-{[2-(2-methylphenoxy)acetyl]amino}pentanoyl)amino]-3-[4-({[4-(1-piperidinylcarbonyl)-1-piperidinyl]carbonyl}oxy)phenyl]propanoic acid]
25.7	CC(C)C[C@H](NC(=O)c1cccc2c1oc1ccccc12)C(=O)N[C@@H](Cc1ccc(OC(=O)N2CCC(C(=O)N3CCCCC3)CC2)cc1)C(=O)O [Example 31, (2S)-2-({(2S)-2-[(Dibenzo[b,d]furan-4-ylcarbonyl)amino]-4-methylpentanoyl}amino)-3-[4-({[4-(1-piperidinylcarbonyl)-1-piperidinyl]carbonyl}oxy)phenyl]propanoic acid]
24	CC(C)C[C@H](NC(=O)COc1ccc2ccccc2c1Br)C(=O)N[C@@H](Cc1ccc(OC(=O)N2CCC(C(=O)N3CCCCC3)CC2)cc1)C(=O)O [Example 32, (2S)-2-{[(2S)-2-({2-[(1-Bromo-2-naphthyl)oxy]acetyl}amino)-4-methylpentanoyl]amino}-3-[4-({[4-(1-piperidinylcarbonyl)-1-piperidinyl]carbonyl}oxy)phenyl]propanoic acid]
3.47	CC(C)C[C@H](NC(=O)COc1ccccc1C(C)(C)C)C(=O)N[C@@H](Cc1ccc(OC(=O)N2CCC(C(N)=O)CC2)cc1)C(=O)O [Example 33, (2S)-3-[4-({[4-(Aminocarbonyl)-1-piperidinyl]carbonyl}oxy)phenyl]-2-{[(2S)-2-({2-[2-(tert-butyl)phenoxy]acetyl}amino)-4-methylpentanoyl]amino}propanoic acid]
26.9	CC(C)C[C@H](NC(=O)COc1ccccc1C(C)(C)C)C(=O)N[C@@H](Cc1ccc(OC(=O)N2CCC(C(=O)NCc3ccc(F)cc3)CC2)cc1)C(=O)O [Example 34, (2S)-2-{[(2S)-2-({2-[2-(Tert-butyl)phenoxy]acetyl}amino)-4-methylpentanoyl]amino}-3-(4-{[(4-{[(4-fluorobenzyl)amino]carbonyl}-1-piperidinyl)carbonyl]oxy}phenyl)propanoic acid]
11	CC(C)C[C@H](NC(=O)COc1ccccc1C(C)(C)C)C(=O)N[C@@H](Cc1ccc(OC(=O)N2CCN(C(=O)c3ccco3)CC2)cc1)C(=O)O [Example 42, (2S)-2-{[(2S)-2-({2-[2-(Tert-butyl)phenoxy]acetyl}amino)-4-methylpentanoyl]amino}-3-[4-({[4-(2-furoyl)-1-piperazinyl]carbonyl}oxy)phenyl]propanoic acid]

— patent US6867192B1, “Compounds useful in the treatment of inflammatory diseases” (priority 1998, dated 2005)
